One compound from ChEMBL document CHEMBL4480438, “Inhibitory Properties of ATP-Competitive Coumestrol and Boldine Are Correlated to Different Modulations of CK2 Flexibility” (J Nat Prod, 2019) can be followed below.

The assay has as its target Casein kinase 2 (Homo sapiens, UniProt P67870+P68400+P19784+Q8NEV1). As to the kind of experiment: Inhibition of CK2 (unknown origin). The class given is protein assay.

In the case of `COc1cc2c(cc1O)C[C@H]1c3c(cc(O)c(OC)c3-2)CCN1C` [BOLDINE], the IC50 amounted to 700 nM.

One may read the IC50 as the concentration that gives 50% inhibition. The low end stands for inhibition by little substance, the high end for a need for much substance.
